Laboratory results published in ChEMBL document CHEMBL1128013, “The synthesis and biological activity of tetrahydroquinoline angiotensin II antagonists containing a substituted biphenyltetrazole group” (Bioorg Med Chem Lett, 1994).

Columns and labels:
Rattus norvegicus = assay: Tested in vivo for inhibition of pressor response induced by infusion of AII in conscious normotensive rats, when given intravenously; assay type: functional, organism-based
[1] = target: T1, Type-1 angiotensin II receptor (Cavia porcellus, UniProt Q9WV26); assay: Compound was tested for in vitro inhibition of specific binding of [I-125]AII to AT1 receptor in guinea pig adrenal membrane preparation; assay type: cell membranes
T1 sequence (Q9WV26 whole entry): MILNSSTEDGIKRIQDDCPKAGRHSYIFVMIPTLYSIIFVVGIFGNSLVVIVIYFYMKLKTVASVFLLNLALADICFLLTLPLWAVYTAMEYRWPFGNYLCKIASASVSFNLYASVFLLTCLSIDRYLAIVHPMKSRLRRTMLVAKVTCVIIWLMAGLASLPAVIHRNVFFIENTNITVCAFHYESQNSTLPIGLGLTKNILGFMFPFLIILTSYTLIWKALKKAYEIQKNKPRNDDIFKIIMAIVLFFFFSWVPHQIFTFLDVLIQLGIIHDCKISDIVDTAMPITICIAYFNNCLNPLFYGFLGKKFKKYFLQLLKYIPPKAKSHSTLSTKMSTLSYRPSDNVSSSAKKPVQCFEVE

[2] = target: T1, Type-1 angiotensin II receptor; assay: Compound was tested for in vitro inhibition of specific binding of [I-125]AII to Angiotensin II receptor, type 1 in guinea pig adrenal membrane preparation; assay type: cell membranes

EC50 (Rattus norvegicus) [mg/kg]	IC50 [1] [nM]	IC50 [2] [nM]	SMILES
0.52	7		CCc1cc(OCc2ccc(-c3ccccc3-c3nn[nH]n3)c(Cl)c2)c2c(n1)CCCC2
0.11	20		CCc1cc(OCc2ccc(-c3ccccc3-c3nn[nH]n3)c(C(=O)OC)c2)c2c(n1)CCCC2
0.39	8		CCc1cc(OCc2ccc(-c3ccccc3-c3nn[nH]n3)c(OC)c2)c2c(n1)CCCC2
0.1	6		CCc1cc(OCc2ccc(-c3ccccc3-c3nn[nH]n3)c(C(C)=O)c2)c2c(n1)CCCC2

The remaining lines, values behind:

SMILES	EC50 (Rattus norvegicus) [mg/kg]	IC50 [1] [nM]	IC50 [2] [nM]
CCc1cc(OCc2ccc(-c3ccccc3-c3nn[nH]n3)cc2F)c2c(n1)CCCC2	0.22		9
CCc1cc(OCc2ccc(-c3ccccc3-c3nn[nH]n3)cc2)c2c(n1)CCCC2	0.39		5
CCc1cc(OCc2ccc(-c3ccc(Cl)cc3-c3nnn[nH]3)cc2)c2c(n1)CCCC2			93
CCc1cc(OCc2ccc(-c3cc(OC)ccc3-c3nn[nH]n3)cc2)c2c(n1)CCCC2			67
CCc1cc(OCc2ccc(-c3c(C)cccc3-c3nn[nH]n3)cc2)c2c(n1)CCCC2	0.48		29
CCc1cc(OCc2ccc(-c3ccc(OC)cc3-c3nnn[nH]3)cc2)c2c(n1)CCCC2			140
CCc1cc(OCc2ccc(-c3ccc(C)cc3-c3nn[nH]n3)cc2)c2c(n1)CCCC2			54
CCc1cc(OCc2ccc(-c3ccccc3-c3nn[nH]n3)c(C(=O)O)c2)c2c(n1)CCCC2	0.24	27	
CCCCc1nc(Cl)c(CO)n1Cc1ccc(-c2ccccc2-c2nnn[nH]2)cc1 [LOSARTAN]	0.65		
